Data taken from patent US20150265572A1, “INJECTABLE CANCER COMPOSITIONS” (GENSPERA, INC., priority 2012, published 2015).
Starred links: 1 amine or outer side, 2 acyl side, 3 side chain; linkers in the order of their positions; H or OH if unused. Non-standard residues stand in square brackets, D forms with d. Residues, ends and D or L forms follow the SMILES beside them. γGlu = O=C(O)[C@H](CCC(=O)[*:2])N[*:1]

Tests used:
[1] = Stability to hydrolysis in mouse plasma; format: in vitro ADME
[2] = Stability to hydrolysis in human plasma; format: in vitro ADME
[3] = Stability of peptides in serum; format: in vitro ADME
[4] = test system: TSU prostate cancer cell line; assay: LD50 for killing against TSU prostate cancer cell line; format: cell-based, human; conditions: TSU prostate cancer cell line (non-PSMA producing)
Excerpt: The prodrugs are hydrolyzed by PSMA and release the corresponding Asp- or Glu-containing thapsigargin analogs, or the thapsigargin analog itself, and also lack potent cytotoxicity when not metabolized by PSMA. Non-PSMA producing TSU-Pr1 human prostate cancer cell line is exposed to each of the PSMA prodrugs at doses that are approximately 50-times the LD50 for the corresponding free thapsigargin analog.

N[C@@H](CC(=O)O)C(=O)N[C@@H](CCC(=O)N[C@@H](CCC(=O)N[C@@H](CC(=O)O)C(=O)N[C@@H](CCC(=O)O)C(=O)O)C(=O)O)C(=O)O [Asp-Glu*Glu*Asp-Glu] (H-D[γGlu][γGlu]DE-OH; N-terminus and C-terminus assumed)
stability to hydrolysis in plasma [1]: completely stable
stability to hydrolysis in plasma [2]: completely stable

NC(=O)CC[C@H](NC(=O)[C@H](CC(=O)O)NC(=O)CC[C@H](NC(=O)CC[C@H](NC(=O)CC[C@H](N)C(=O)O)C(=O)O)C(=O)O)C(=O)O [Glu*Glu*Glu*Asp-Gln] ({γGlu-γGlu-γGlu}-Asp-Gln-OH; N-terminus and C-terminus assumed)
stability in serum [3]: high stability

N[C@@H](CCC(=O)N[C@@H](CCC(=O)N[C@@H](CCC(=O)N[C@@H](CC(=O)O)C(=O)N[C@@H](CCC(=O)O)C(=O)O)C(=O)O)C(=O)O)C(=O)O [Glu*Glu*Glu*Asp-Glu] ({γGlu-γGlu-γGlu}-Asp-Glu-OH; N-terminus and C-terminus assumed)
stability in serum [3]: high stability

12ADT-Glu [Composition 12ADT-Glu]
LD50 value for killing [4]: approximately 50 nM
